Assays:
HLA-A∗02:01 on T2 cells = molecular target: T1, HLA-A∗02:01 on T2 cells (Homo sapiens, UniProt P04439, D140Y/D185E/D98H/E176V/E277Q/G131W/G231S/I119V/I121R/I166T/I218V/L300P/L318F/N151K/N90K/P208A/P217A/Q86G/Q94H/R138H/R169H/T345S); assay: T2-cell-peptide binding test (peptide-induced HLA-A∗02:01 expression, flow cytometry); settings: peptide 20 μg/mL; for affinity for binding to HLA-A∗02 (in words): 4 h, Figure 2(b); for percentage of MFI increase of HLA-A∗02:01: 4 h in SFM, BB7.2 anti-HLA-A∗02:01 mAb, mean ± SE of three independent experiments, SEM
T1 construct: measuring peptide-induced expression of HLA-A∗02:01 on T2 cells using flow cytometry; host or cells: T2 cells (human, TAP1/TAP2-deficient)
Protocol: The binding activity of selected peptides to the HLA-A∗02 molecule was determined semiquantitatively by measuring peptide-induced expression of HLA-A∗02:01 on T2 cells using flow cytometry. The T2 cells were incubated for 4 h with the candidate peptides, respectively, at a concentration of 20 μg/mL in SFM. After being washed with phosphate buffered saline-fetal calf serum (PBS-FCS), the T2 cells were incubated with supernatant containing murine mAb against HLA-A∗02:01 derived from BB7.2 cells for 30 min at 4°C. The T2 cells were washed twice with PBS-FCS and stained with 5 μg/mL diluted fluorescein isothiocyanate-conjugated immunoglobulin G which reacts to mouse immunoglobulin for 30 min. The cells were then rinsed three times with PBS-FCS and analyzed using a FACSAria flow cytometer. The percent mean fluorescence index (% MFI) increase of HLA-A∗02:01 molecules was calculated as follows: % MFI increase = [(MFI with peptide − MFI without peptide)]/(MFI without peptide) × 100 [27].

[1] = tested on: PBMCs from healthy donors and patients with glioma; assay: IFN-γ ELISpot assay with PBMCs; type: cell-based, human; settings: PBMCs from five HLA-A∗02+ patients with GBM and one control patient with benign tumor, Figure 4
Protocol: A human IFN-γ ELISpot kit (552138; BD Pharmingen, CA) was used to quantify the CTL response in PBMCs. Several 96-well plates were coated with purified anti-human IFN-γ monoclonal antibodies at the concentration of 5 μg/mL at 100 μL/well and incubated at 4°C overnight and then washed once with 200 μL/well of RPMI-1640 containing 10% FBS and 1% penicillin-streptomycin-L-glutamine (R10) and blocked with 200 μL/well R10 for 2 h at room temperature. PBMCs were then washed twice with R10 and resuspended in R10 complete culture medium. After being counted, the cells were then adjusted to the concentration of 1 × 10^6 cells/mL and plated onto a 96-well ELISpot plate at 50 μL/well (5 × 10^4 cells/well) with the addition of 50 μL of the peptide. The final concentration of each peptide was 5 μg/mL. The 96-well ELISpot plates were incubated for about 20 h at 37°C in 5% CO2. After incubation, the ELISpot plates were developed according to the kit instructions. Finally, the plates were air-dried and the resulting spots were counted with ChampSpot IV Bioreader (Beijing SAGE Creation Science, Beijing, China). Peptide-specific IFN-γ ELISpot responses were considered positive only when the number of spots was twofold greater than the control peptide stimulation and there were >50 spots per 1 × 10^6 PBMCs.

| affinity for binding to HLA-A∗02 (in words) (HLA-A∗02:01 on T2 cells) | percentage of MFI increase of HLA-A∗02:01 (HLA-A∗02:01 on T2 cells) [%] | Sequence | ELISpot response to individual peptide (in words) [1] |
| --- | --- | --- | --- |
| lower affinity | – | FLFDTQHFI [HEATR1_2003–2011] | – |
| – | 285.2 ± 49.2 | LLPESIPFL [HEATR1_2102–2110] | – |

The remaining lines, values behind:

| Sequence | affinity for binding to HLA-A∗02 (in words) (HLA-A∗02:01 on T2 cells) | percentage of MFI increase of HLA-A∗02:01 (HLA-A∗02:01 on T2 cells) [%] | ELISpot response to individual peptide (in words) [1] |
| --- | --- | --- | --- |
| KLLRMLFDL [HEATR1_1126–1134] | – | 287.2 ± 7.7 | higher than the others |
| KMVEDLISV [HEATR1_682–690] | highest affinity | 308.5 ± 4.8 | higher than the others |
| FLWILLILL [HEATR1_1411–1419] | lowest affinity | – | – |
| LMLDRGIPV [HEATR1_757–765] | – | 228.7 ± 5.4 | highest ELISpot response |

Source: article PMC4121097, “Glioma-Associated Antigen HEATR1 Induces Functional Cytotoxic T Lymphocytes in Patients with Glioma” (Journal of Immunology Research, 2014)
